One may read the ED50 as the dose at which the effect has come halfway, by size or by number of responders.

This is an account of results in patent US4077954A, “N-(p-methylphenethyl)-4a-aryl-trans-decahydroisoquinolines” (priority 1976, dated 1978).

Each structure is given as a SMILES string. Structures can show the parent of a compound that is named as a salt. Where two headings read alike, the source gives them in different places.

The test system of series [1] is mice (phenylquinone-induced writhing). The series is described as follows: phenylquinone writhing test (analgesic ED50), oral, mice. The format is in vivo, female white mice. The note with it: Mus musculus, read-out: ED50 analgesia. The procedure:
A standard procedure for detecting and comparing the analgesic activity of compounds in this series for which there is good correlation with human efficacy is the standard phenylquinone writhing test modified from Siegmund, et. at., Proc. Soc. Exp. Biol. Med. 95, 729 (1957). A test compound suspended in 1% methylcellulose was given orally to fasted (17-21 hours) female white mice, 5-20 animals per double blind test. Aqueous (0.01% phenyl-p-benzoquinone) phenylquinone was injected intraperitoneally at 24 minutes later using 0.20 ml per mouse. […] The effective analgesic dose for 50% of the mice (ED 50) was calculated by the moving average method of Thompson, W. R., Bact. Rev. 11, 115-145 (1947).
In general terms: In writhing tests, fewer writhes than in controls are read as antinociception.

A short description of series [2]: Straub tail test (Straub tail ED50), intraperitoneal, mice. On the set-up: species or system CF1S female mice. As to conditions: mouse, in vivo; for ED50 at 25 min: ip, mice, intraperitoneal, within 25 minutes after dosing, read-out: ED50^ST (Straub tail ED50). The procedure:
Narcotic analgesics produce in mice an erection and arching of the tail (90° or more) which is referable to spinal cord stimulation. This straub tail reaction is not produced by other analgesics, including the narcotic antagonists.
The method used was modified from Shemano, I., and Wendel, H., Tox. Appl. Pharm. 6, 334-9 (1964). CF1 S female mice (18-21 g), 10-20 mice per dose were injected intraperitoneally with log scaled doses of analgesic in 1% aqueous methylcellulose. A positive Straub tail response was recorded if a tail was erected 90° or more for 5 seconds at any time within 25 minutes after dosing. A quantal Straub tail ED50 was calculated by the moving average method. (Thompson, W. R., Bact. Rev. 11, 115-145 (1947).

In series [3] the test system is mice. The note with it: cited from earlier work.
Series [4] concerns mice. As to conditions: cited from earlier work. The source holds these as a separate data set.
A further series can be described thus: in vivo. The note with it: mouse.
The conditions of series [5]: literature statement; cited from earlier work.
The conditions of series [6]: Goodman & Gilman 1965; cited from earlier work.
Setting [7] is: oral, Belgian Patent 802,557 compound.

Regarding `Cc1ccc(CCN2CC[C@]3(c4cccc(O)c4)CCCC[C@H]3C2)cc1` (relative stereo) [N-(p-methylphenethyl)-4a-(m-hydroxyphenyl)-trans-decahydroisoquinoline], the median effective dose (ED50) in series [1] turned out to be 2 mg/kg. For the same compound, the ED50 at 25 min in series [2] was determined as 93 mg/kg. The selectivity ratio in series [2] (ratio of Straub tail ED50 to analgesic ED50, read-out: ED50^ST /ED50^analgesia) turned out to be 46.
Regarding `COc1cccc([C@@]23CCCC[C@H]2CN(CCc2ccc(C)cc2)CC3)c1` (relative stereo) [N-(p-methylphenethyl)-4a-(m-methoxyphenyl)-trans-decahydroisoquinoline], the ED50 in series [1] amounted to 5.8 mg/kg. The ED50 at 25 min in series [2] is 93 mg/kg.
For `Oc1cccc([C@@]23CCCC[C@H]2CN(CCc2ccccc2)CC3)c1` (relative stereo) [N-phenethyl-4a-(m-hydroxyphenyl)-trans-decahydroisoquinoline], the ED50^ST in the series with mice [3] (setting [7]) is 10 mg/kg. For the same compound, the ED50^analgesia in the series with mice [4] (setting [7]) is 6.6 mg/kg. For the same compound, the selectivity ratio in the series “in vivo” (po) is ~1.
For `Cc1ccc(CCN2CC[C@@]3(c4cccc(O)c4)CC(C)CC[C@@H]3C2)cc1` (stereo partly drawn) [N-(p-methylphenethyl)-4a-(m-hydroxyphenyl)-6-methyl-trans-decahydroisoquinoline], the median effective dose (ED50) in series [1] was determined as 2 mg/kg. Also, the ED50 at 25 min in series [2] worked out at 135 mg/kg.
In the case of `CN1CCC2(c3ccccc3)CCCCC2C1` (stereo not shown) [N-methyl-4a-phenyl-decahydroisoquinoline], the “analgesic activity” value in series [5] was “low analgesic activity”.
Regarding `COc1cccc([C@@]23CCN(CCc4ccc(C)cc4)C[C@H]2CCC(C)C3)c1` (stereo partly drawn) [N-p-methylphenethyl-4a-(m-methoxyphenyl)-6-methyl-trans-decahydroisoquinoline], the ED50 in series [1] is 8.7 mg/kg. Besides, the ED50 at 25 min in series [2] was > 135 mg/kg.
On to `CC1C2Cc3ccc(O)cc3C1(C)CCN2CCc1ccccc1` (stereo not shown) [Phenzaocine hydrobromide], for which the “Straub tail ED50” value in the series on mice [3] (mice, Shemano and Wendel 1964) is 0.5 mg/kg. Further, the “analgesic ED50” value in the series on mice [4] (mice, Shemano and Wendel 1964) is on record as 0.2 mg/kg. Besides, the selectivity ratio in “in vivo” is ~2.5.
Take `CN1CC[C@]23c4c5ccc(O)c4O[C@H]2[C@@H](O)C=C[C@H]3[C@H]1C5` [morphine]: in the series on mice [4] (morphine, background section), the ED50^analgesia is 5.6 mg/kg.
With `CC1C2Cc3ccc(O)cc3C1(C)CCN2CCc1ccccc1` (stereo not shown) [phenazocine, 2'-hydroxy-5,9-dimethyl-2-phenethyl-6,7-benzomorphan], the “analgesic activity” value in series [5] is listed as “potent analgesic”. Moreover, the “morphine-like actions” value in series [6] was “produces the entire range of morphine-like actions, including respiratory depression, constipation, and physical dependence”.
